≈ marks a conversion by molar mass, not a printed value.
Experiments:
Format in all cases: functional
Staphylococcus aureus = test: Antibacterial activity against Staphylococcus aureus ATCC 25923 after 3 to 4 days by serial plate dilution method
Klebsiella pneumoniae = test: Antibacterial activity against Klebsiella pneumoniae after 3 to 4 days by serial plate dilution method
Talaromyces marneffei = test: Antifungal activity against Penicillium marneffei after 3 to 4 days by serial plate dilution method
Aspergillus flavus = test: Antifungal activity against Aspergillus flavus NCIM 524 after 3 to 4 days by serial plate dilution method
[1] = system: Trichophyton mentagrophytes; test: Antifungal activity against Trichophyton mentagrophytes after 3 to 4 days by serial plate dilution method
Aspergillus fumigatus = test: Antifungal activity against Aspergillus fumigatus NCIM 902 after 3 to 4 days by serial plate dilution method
Escherichia coli = test: Antibacterial activity against Escherichia coli ATCC 25922 after 3 to 4 days by serial plate dilution method
Pseudomonas aeruginosa = test: Antibacterial activity against Pseudomonas aeruginosa ATCC 27853 after 3 to 4 days by serial plate dilution method
Rattus norvegicus = test: Antiinflammatory activity in Wister albino rat assessed as inhibition of carrageenan-induced paw edema at 10 mg/kg, po administered 30 mins before carrageenan treatment measured after 3 hrs by plethysmometric analysis
Mus musculus [2] = test: Analgesic activity in Swiss albino mouse assessed as inhibition of heat-induced paw licking or jumping behavior at 10 mg/kg, po administered after 15 sec of heat challenge measured after 30 mins post dose by Eddy's hot plate method; conditions: 0.5 h
Mus musculus [3] = test: Analgesic activity in Swiss albino mouse assessed as inhibition of heat-induced paw licking or jumping behavior at 10 mg/kg, po administered after 15 sec of heat challenge measured after 60 mins post dose by Eddy's hot plate method; conditions: 1 h
Mus musculus [4] = test: Analgesic activity in Swiss albino mouse assessed as inhibition of heat-induced paw licking or jumping behavior at 10 mg/kg, po administered after 15 sec of heat challenge measured after 90 mins post dose by Eddy's hot plate method; conditions: 1.5 h

Row | Structure (SMILES) | MIC (Staphylococcus aureus) [µg/mL] | MIC (Klebsiella pneumoniae) [µg/mL] | MIC (Talaromyces marneffei) [µg/mL] | MIC (Aspergillus flavus) [µg/mL] | MIC [1] [µg/mL] | MIC (Aspergillus fumigatus) [µg/mL] | MIC (Escherichia coli) [µg/mL] | MIC (Pseudomonas aeruginosa) [µg/mL] | inhibition in vivo at 10 mg/kg (Rattus norvegicus) [%] | inhibition in vivo at 10 mg/kg (Mus musculus [2]) [%] | inhibition in vivo at 10 mg/kg (Mus musculus [3]) [%] | inhibition in vivo at 10 mg/kg (Mus musculus [4]) [%]
1 | O=C(O)c1cn(C2CC2)c2cc(N3CCNCC3)c(F)cc2c1=O [CIPROFLOXACIN] | 1.56 (≈ 4.71 µM) | 6.25 (≈ 18.9 µM) |  |  |  |  |  |  |  |  |  | 
2 | Cc1cc(C2CCCCC2)n(O)c(=O)c1.NCCO [CICLOPIROX OLAMINE] |  |  | 1.56 | 6.25 | 6.25 | 6.25 |  |  |  |  |  | 
3 | CSc1ccc(Cc2nn(CN3CCN(c4ccc([N+](=O)[O-])cc4)CC3)c(=S)o2)cc1 | 6.25 (≈ 13.7 µM) | 6.25 (≈ 13.7 µM) | 25 (≈ 54.6 µM) | 25 (≈ 54.6 µM) | 25 (≈ 54.6 µM) | 25 (≈ 54.6 µM) | 6.25 (≈ 13.7 µM) | 6.25 (≈ 13.7 µM) | 56.6 |  |  | 
4 | CC(C)Cc1ccc(C(C)c2nn(CN3CCOCC3)c(=S)o2)cc1 (configuration not stated) | 6.25 (≈ 17.3 µM) | 6.25 (≈ 17.3 µM) | 6.25 (≈ 17.3 µM) | 6.25 (≈ 17.3 µM) | 6.25 (≈ 17.3 µM) | 6.25 (≈ 17.3 µM) | 6.25 (≈ 17.3 µM) | 6.25 (≈ 17.3 µM) | 69.5 |  |  | 
5 | CSc1ccc(Cc2nn(CN3CCN(c4cccc(Cl)c4)CC3)c(=S)o2)cc1 | 12.5 (≈ 28 µM) | 12.5 (≈ 28 µM) | 12.5 (≈ 28 µM) | 12.5 (≈ 28 µM) | 12.5 (≈ 28 µM) | 12.5 (≈ 28 µM) | 12.5 (≈ 28 µM) | 12.5 (≈ 28 µM) | 74.7 | 25.6 | 32 | 41.2
6 | CSc1ccc(Cc2nn(CN3CCN(C)CC3)c(=S)o2)cc1 | 12.5 (≈ 35.7 µM) | 12.5 (≈ 35.7 µM) | 25 (≈ 71.3 µM) | 25 (≈ 71.3 µM) | 25 (≈ 71.3 µM) | 25 (≈ 71.3 µM) | 12.5 (≈ 35.7 µM) | 12.5 (≈ 35.7 µM) |  |  |  | 
7 | O=C(O)Cc1ccccc1Nc1c(Cl)cccc1Cl [DICLOFENAC SODIUM] |  |  |  |  |  |  |  |  | 73.7 | 29.2 | 40.8 | 53.6
8 | COc1ccc(N2CCN(Cn3nc(C(C)c4ccc(CC(C)C)cc4)oc3=S)CC2)cc1 (configuration not stated) | 6.25 (≈ 13.4 µM) | 6.25 (≈ 13.4 µM) | 12.5 (≈ 26.8 µM) | 12.5 (≈ 26.8 µM) | 12.5 (≈ 26.8 µM) | 12.5 (≈ 26.8 µM) | 6.25 (≈ 13.4 µM) | 6.25 (≈ 13.4 µM) | 42.6 |  |  | 
9 | CSc1ccc(Cc2nn(CN3CCOCC3)c(=S)o2)cc1 | 12.5 (≈ 37 µM) | 12.5 (≈ 37 µM) | 6.25 (≈ 18.5 µM) | 6.25 (≈ 18.5 µM) | 6.25 (≈ 18.5 µM) | 6.25 (≈ 18.5 µM) | 12.5 (≈ 37 µM) | 12.5 (≈ 37 µM) | 35.2 |  |  | 
10 | CC(C)Cc1ccc(C(C)c2nn(CN3CCN(c4ccc([N+](=O)[O-])cc4)CC3)c(=S)o2)cc1 (configuration not stated) | 12.5 (≈ 26 µM) | 12.5 (≈ 26 µM) | 25 (≈ 51.9 µM) | 25 (≈ 51.9 µM) | 25 (≈ 51.9 µM) | 25 (≈ 51.9 µM) | 12.5 (≈ 26 µM) | 12.5 (≈ 26 µM) | 75.1 | 30.6 | 36.2 | 44.8
11 | CC(C)Cc1ccc(C(C)c2nn(CN3CCN(c4ccc(F)cc4)CC3)c(=S)o2)cc1 (configuration not stated) | 6.25 (≈ 13.7 µM) | 6.25 (≈ 13.7 µM) | 6.25 (≈ 13.7 µM) | 6.25 (≈ 13.7 µM) | 6.25 (≈ 13.7 µM) | 6.25 (≈ 13.7 µM) | 6.25 (≈ 13.7 µM) | 6.25 (≈ 13.7 µM) | 75.4 | 32.6 | 45 | 57
12 | CC(C)Cc1ccc(C(C)c2nn(CN3CCNCC3)c(=S)o2)cc1 (configuration not stated) | 12.5 (≈ 34.7 µM) | 12.5 (≈ 34.7 µM) | 12.5 (≈ 34.7 µM) | 12.5 (≈ 34.7 µM) | 12.5 (≈ 34.7 µM) | 12.5 (≈ 34.7 µM) | 12.5 (≈ 34.7 µM) | 12.5 (≈ 34.7 µM) |  |  |  | 
13 | CC(C)Cc1ccc(C(C)c2nn(CN3CCN(c4ccc(Cl)cc4)CC3)c(=S)o2)cc1 (configuration not stated) | 12.5 (≈ 26.5 µM) | 12.5 (≈ 26.5 µM) | 12.5 (≈ 26.5 µM) | 12.5 (≈ 26.5 µM) | 12.5 (≈ 26.5 µM) | 12.5 (≈ 26.5 µM) | 12.5 (≈ 26.5 µM) | 12.5 (≈ 26.5 µM) | 76.6 | 22.8 | 28 | 35.8
14 | CC(C)Cc1ccc(C(C)c2nn(CN3CCN(c4cccc(Cl)c4)CC3)c(=S)o2)cc1 (configuration not stated) | 25 (≈ 53.1 µM) | 25 (≈ 53.1 µM) | 6.25 (≈ 13.3 µM) | 6.25 (≈ 13.3 µM) | 6.25 (≈ 13.3 µM) | 6.25 (≈ 13.3 µM) | 25 (≈ 53.1 µM) | 25 (≈ 53.1 µM) | 64.3 |  |  | 
15 | CCOc1ccccc1N1CCN(Cn2nc(C(C)c3ccc(CC(C)C)cc3)oc2=S)CC1 (configuration not stated) | 25 (≈ 52 µM) | 25 (≈ 52 µM) | 12.5 (≈ 26 µM) | 12.5 (≈ 26 µM) | 12.5 (≈ 26 µM) | 12.5 (≈ 26 µM) | 25 (≈ 52 µM) | 25 (≈ 52 µM) | 44.6 |  |  | 
16 | CSc1ccc(Cc2nn(CN3CCN(c4ccc(Cl)cc4)CC3)c(=S)o2)cc1 | 6.25 (≈ 14 µM) | 6.25 (≈ 14 µM) | 6.25 (≈ 14 µM) | 6.25 (≈ 14 µM) | 6.25 (≈ 14 µM) | 6.25 (≈ 14 µM) | 6.25 (≈ 14 µM) | 6.25 (≈ 14 µM) | 71.1 |  |  | 
17 | CCOC(=O)C1CCN(Cn2nc(Cc3ccc(SC)cc3)oc2=S)CC1 | 12.5 (≈ 30.7 µM) | 12.5 (≈ 30.7 µM) | 12.5 (≈ 30.7 µM) | 12.5 (≈ 30.7 µM) | 12.5 (≈ 30.7 µM) | 12.5 (≈ 30.7 µM) | 12.5 (≈ 30.7 µM) | 12.5 (≈ 30.7 µM) | 57.4 |  |  | 
18 | CSc1ccc(Cc2nn(CN3CCN(c4ccc(F)cc4)CC3)c(=S)o2)cc1 | 6.25 (≈ 14.5 µM) | 6.25 (≈ 14.5 µM) | 6.25 (≈ 14.5 µM) | 6.25 (≈ 14.5 µM) | 6.25 (≈ 14.5 µM) | 6.25 (≈ 14.5 µM) | 6.25 (≈ 14.5 µM) | 6.25 (≈ 14.5 µM) | 68.7 |  |  | 
19 | CCOC(=O)C1CCN(Cn2nc(C(C)c3ccc(CC(C)C)cc3)oc2=S)CC1 (configuration not stated) | 12.5 (≈ 29 µM) | 12.5 (≈ 29 µM) | 12.5 (≈ 29 µM) | 12.5 (≈ 29 µM) | 12.5 (≈ 29 µM) | 12.5 (≈ 29 µM) | 12.5 (≈ 29 µM) | 12.5 (≈ 29 µM) | 73.9 | 30.6 | 41.8 | 55.2
20 | CSc1ccc(Cc2nn(CN3CCNCC3)c(=S)o2)cc1 | 12.5 (≈ 37.1 µM) | 12.5 (≈ 37.1 µM) | 12.5 (≈ 37.1 µM) | 12.5 (≈ 37.1 µM) | 12.5 (≈ 37.1 µM) | 12.5 (≈ 37.1 µM) | 12.5 (≈ 37.1 µM) | 12.5 (≈ 37.1 µM) |  |  |  | 
21 | CSc1ccc(Cc2nn(CN3CCCCC3)c(=S)o2)cc1 | 12.5 (≈ 37.3 µM) | 12.5 (≈ 37.3 µM) | 25 (≈ 74.5 µM) | 25 (≈ 74.5 µM) | 25 (≈ 74.5 µM) | 25 (≈ 74.5 µM) | 12.5 (≈ 37.3 µM) | 12.5 (≈ 37.3 µM) |  |  |  | 
22 | CC(C)Cc1ccc(C(C)c2nn(CN3CCN(C)CC3)c(=S)o2)cc1 (configuration not stated) | 12.5 (≈ 33.4 µM) | 12.5 (≈ 33.4 µM) | 25 (≈ 66.7 µM) | 25 (≈ 66.7 µM) | 25 (≈ 66.7 µM) | 25 (≈ 66.7 µM) | 12.5 (≈ 33.4 µM) | 12.5 (≈ 33.4 µM) |  |  |  | 
23 | COc1ccc(N2CCN(Cn3nc(Cc4ccc(SC)cc4)oc3=S)CC2)cc1 | 12.5 (≈ 28.2 µM) | 12.5 (≈ 28.2 µM) | 12.5 (≈ 28.2 µM) | 12.5 (≈ 28.2 µM) | 12.5 (≈ 28.2 µM) | 12.5 (≈ 28.2 µM) | 12.5 (≈ 28.2 µM) | 12.5 (≈ 28.2 µM) | 33.7 |  |  | 
24 | CCOc1ccccc1N1CCN(Cn2nc(Cc3ccc(SC)cc3)oc2=S)CC1 | 12.5 (≈ 27.4 µM) | 12.5 (≈ 27.4 µM) | 12.5 (≈ 27.4 µM) | 12.5 (≈ 27.4 µM) | 12.5 (≈ 27.4 µM) | 12.5 (≈ 27.4 µM) | 12.5 (≈ 27.4 µM) | 12.5 (≈ 27.4 µM) | 42.5 |  |  | 
25 | CC(C)Cc1ccc(C(C)c2nn(CN3CCCCC3)c(=S)o2)cc1 (configuration not stated) | 25 (≈ 69.5 µM) | 25 (≈ 69.5 µM) | 25 (≈ 69.5 µM) | 25 (≈ 69.5 µM) | 25 (≈ 69.5 µM) | 25 (≈ 69.5 µM) | 25 (≈ 69.5 µM) | 25 (≈ 69.5 µM) |  |  |  | 

Reference: ChEMBL document CHEMBL1275314, “Synthesis and biological evaluation of some 1,3,4-oxadiazole derivatives” (Eur J Med Chem, 2010)
